# In ChEMBL document CHEMBL1201862, “PubChem BioAssay data set” (2004):
# Active and inactive are the calls of the source.
# What was measured:
# [1] = molecular target: Benomyl/methotrexate resistance protein (Candida albicans, UniProt P28873); experiment: Candida albicans Mdr1 pump blockade titration – singleplex, Cherry Pick2 set, dose response (AID 623992); type: functional; settings: read-out: EC50_MICROM
# [2] = Vero cell cytotoxicity, cytotoxicity control for M. tuberculosis inhibitor project, purified and synthesized samples, set 3 (AID 504684); type: functional
# [3] = CCR5-tropic HIV-1 fusion blockers – cell-based, CCR5-tropic Env, dose response (AID 2279); type: functional
# [4] = microbe, parasite or virus in culture; type: functional; settings: Mycobacterium tuberculosis
# [5] = A Cell Based Secondary Assay to Explore Cytotoxicity in HepG2 Cells of Compounds that Modulate Mycobacterium tuberculosis in Media Containing Glycerol versus Media without Glycerol (2).; type: functional
# [6] = A Cell Based Secondary Assay to Explore Cytotoxicity in THP-1 Cells of Compounds that Modulate Mycobacterium tuberculosis in Media Containing Glycerol versus Media without Glycerol (2).; type: functional
# Melanocortin receptor 4 = Melanocortin receptor 4 (Homo sapiens, UniProt P32245); experiment: inhibitors of MC4R cAMP signaling – cell-based, TR-FRET, biased antagonists, dose response (AID 602298); type: functional;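 further: antagonist potency against agonist-stimulated cAMP production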
# [7] = HEK-293T cell viability reduction – luminescence, B-cell screen hits, cytotoxicity control for BCR NF-kB inhibitor project, dose response (AID 489021); type: functional, cell-based;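 further: HEK-293T cells carrying an NF-kB luciferase reporter; cells exposed to compound for about 14 hours before viability readout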
# [8] = cAMP pathway inhibition in counterscreen cell line – TR-FRET cAMP detection, counter-screen for MC4R biased antagonist project, dose response (AID 602305); type: functional, cell-based;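 further: U2OS cells stimulated with forskolin near its EC80 as the cAMP inducer; potency is for inhibition of forskolin-stimulated cAMP signaling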
# [9] = molecular target: T1, Sentrin-specific protease 8 (Homo sapiens, UniProt Q96LD8); experiment: inhibition of human SENP8 cleavage activity – biochemical, luminescence, SAR follow-up (AID 504501); type: functional
# T1 sequence (Q96LD8 whole entry): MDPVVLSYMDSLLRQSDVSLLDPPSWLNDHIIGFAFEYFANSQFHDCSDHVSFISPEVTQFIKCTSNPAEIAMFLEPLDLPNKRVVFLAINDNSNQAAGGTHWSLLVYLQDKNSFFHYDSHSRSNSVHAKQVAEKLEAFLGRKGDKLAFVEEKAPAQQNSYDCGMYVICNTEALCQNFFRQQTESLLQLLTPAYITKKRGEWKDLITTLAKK
# Caspase-3 = molecular target: T2, Caspase-3 (Homo sapiens, UniProt P42574); experiment: SAR Analysis of small molecule inhibitors of Sentrin-specific proteases (SENPs) using a Caspase-3 Selectivity assay. [Related pubchem assays (depositor defined):AID2540, AID2599, AID434973, AID489001]; type: functional
# T2 sequence (P42574 whole entry): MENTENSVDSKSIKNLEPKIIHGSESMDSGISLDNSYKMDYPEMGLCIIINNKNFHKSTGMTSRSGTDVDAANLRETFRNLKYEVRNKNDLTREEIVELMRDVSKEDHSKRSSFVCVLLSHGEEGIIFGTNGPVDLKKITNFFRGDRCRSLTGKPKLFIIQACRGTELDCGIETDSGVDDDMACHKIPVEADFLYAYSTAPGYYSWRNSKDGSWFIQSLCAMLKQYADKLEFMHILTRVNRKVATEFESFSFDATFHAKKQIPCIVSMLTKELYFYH
# [10] = molecular target: T3, Sentrin-specific protease 6 (Homo sapiens, UniProt Q9GZR1); experiment: SAR Analysis of small molecule inhibitors of Sentrin-specific protease 6 (SENP6) using a Luminescent assay. [Related pubchem assays (depositor defined):AID2582, AID2599]; type: functional
# T3 sequence (Q9GZR1 whole entry): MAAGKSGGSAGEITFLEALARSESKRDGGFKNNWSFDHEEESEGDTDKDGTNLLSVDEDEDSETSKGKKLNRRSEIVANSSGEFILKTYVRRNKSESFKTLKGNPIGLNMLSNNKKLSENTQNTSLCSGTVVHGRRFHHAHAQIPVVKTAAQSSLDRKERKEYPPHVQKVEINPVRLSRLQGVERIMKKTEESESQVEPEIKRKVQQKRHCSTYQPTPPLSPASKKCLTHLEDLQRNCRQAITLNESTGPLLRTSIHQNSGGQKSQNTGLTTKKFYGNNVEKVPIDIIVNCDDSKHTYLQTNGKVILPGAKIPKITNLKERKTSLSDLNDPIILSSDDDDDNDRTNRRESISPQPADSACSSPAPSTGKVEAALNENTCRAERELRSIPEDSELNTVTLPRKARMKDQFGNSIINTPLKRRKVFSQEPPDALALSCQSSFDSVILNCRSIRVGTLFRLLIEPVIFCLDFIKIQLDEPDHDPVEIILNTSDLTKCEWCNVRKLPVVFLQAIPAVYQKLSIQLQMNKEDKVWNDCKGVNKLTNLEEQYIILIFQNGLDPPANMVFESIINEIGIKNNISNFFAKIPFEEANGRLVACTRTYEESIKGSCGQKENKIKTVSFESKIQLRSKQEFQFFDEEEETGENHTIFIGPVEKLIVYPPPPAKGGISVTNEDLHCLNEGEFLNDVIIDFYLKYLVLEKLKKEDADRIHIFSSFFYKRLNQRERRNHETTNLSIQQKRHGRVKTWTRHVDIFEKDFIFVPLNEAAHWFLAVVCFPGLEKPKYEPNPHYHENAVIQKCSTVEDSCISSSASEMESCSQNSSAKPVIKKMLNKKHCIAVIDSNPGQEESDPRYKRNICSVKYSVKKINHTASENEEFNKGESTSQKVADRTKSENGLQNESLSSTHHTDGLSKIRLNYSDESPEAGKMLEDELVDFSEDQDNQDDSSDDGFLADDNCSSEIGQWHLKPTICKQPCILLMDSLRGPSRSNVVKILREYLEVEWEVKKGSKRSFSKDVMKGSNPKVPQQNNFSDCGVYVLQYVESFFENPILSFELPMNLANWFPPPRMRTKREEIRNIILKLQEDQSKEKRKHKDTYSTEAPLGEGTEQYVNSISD
# [11] = molecular target: T4, Sentrin-specific protease 7 (Homo sapiens, UniProt Q9BQF6); experiment: inhibition of human SENP7 cleavage activity – biochemical, luminescence, SAR follow-up (AID 504497); type: functional
# T4 sequence (Q9BQF6 whole entry): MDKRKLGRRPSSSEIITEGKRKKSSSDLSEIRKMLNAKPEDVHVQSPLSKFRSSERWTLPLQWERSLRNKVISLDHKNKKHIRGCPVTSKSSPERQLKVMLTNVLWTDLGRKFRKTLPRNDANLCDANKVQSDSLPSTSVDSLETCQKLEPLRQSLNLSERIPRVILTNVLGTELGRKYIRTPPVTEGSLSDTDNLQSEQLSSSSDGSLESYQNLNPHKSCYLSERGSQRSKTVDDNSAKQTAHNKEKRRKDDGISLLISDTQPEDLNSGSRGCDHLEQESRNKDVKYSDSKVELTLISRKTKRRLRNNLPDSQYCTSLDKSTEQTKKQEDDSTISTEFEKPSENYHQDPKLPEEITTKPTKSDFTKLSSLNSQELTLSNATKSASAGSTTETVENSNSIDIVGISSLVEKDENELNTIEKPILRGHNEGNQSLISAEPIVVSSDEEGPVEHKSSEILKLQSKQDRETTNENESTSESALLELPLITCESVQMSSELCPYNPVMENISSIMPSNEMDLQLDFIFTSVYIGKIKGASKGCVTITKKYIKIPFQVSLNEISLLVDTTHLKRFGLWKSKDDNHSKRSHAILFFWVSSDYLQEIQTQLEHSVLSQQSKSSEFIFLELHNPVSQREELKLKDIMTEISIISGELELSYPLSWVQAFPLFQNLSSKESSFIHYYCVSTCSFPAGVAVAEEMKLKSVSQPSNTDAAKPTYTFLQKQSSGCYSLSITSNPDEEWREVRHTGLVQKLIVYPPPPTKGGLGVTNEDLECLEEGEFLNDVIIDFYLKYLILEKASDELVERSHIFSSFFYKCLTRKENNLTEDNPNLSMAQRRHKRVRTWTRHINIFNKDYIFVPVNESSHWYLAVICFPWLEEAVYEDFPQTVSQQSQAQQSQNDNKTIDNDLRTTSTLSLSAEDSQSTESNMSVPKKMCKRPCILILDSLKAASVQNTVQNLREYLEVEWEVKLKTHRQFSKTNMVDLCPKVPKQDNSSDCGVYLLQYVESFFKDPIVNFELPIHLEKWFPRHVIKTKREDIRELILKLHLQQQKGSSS
# [12] = molecular target: Melanin-concentrating hormone receptor 1 (Homo sapiens, UniProt Q99705); experiment: Late-stage fluorescence-based counterscreen for antagonists of the G-protein coupled receptor 7 (GPR7): cell-based dose response assay to identify antagonists of the melanin-concentrating hormone receptor 1 (MCHR1) Set 5.; type: functional
# Chain of Melanin-concentrating hormone receptor 1 (Q99705 whole entry): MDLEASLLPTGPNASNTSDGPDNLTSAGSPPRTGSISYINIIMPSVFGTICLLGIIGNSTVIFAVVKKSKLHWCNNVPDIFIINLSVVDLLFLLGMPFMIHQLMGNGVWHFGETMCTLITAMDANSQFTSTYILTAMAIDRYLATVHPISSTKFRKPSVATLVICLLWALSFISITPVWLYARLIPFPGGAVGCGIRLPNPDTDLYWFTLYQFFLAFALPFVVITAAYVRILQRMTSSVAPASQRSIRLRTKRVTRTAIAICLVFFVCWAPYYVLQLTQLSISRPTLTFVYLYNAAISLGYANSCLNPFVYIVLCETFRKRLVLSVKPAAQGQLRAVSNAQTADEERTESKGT
# [13] = molecular target: Neuropeptides B/W receptor type 1 (Homo sapiens, UniProt P48145); experiment: human NPBW1 receptor blockade, IC50 – cell-based, fluorescence, dose response, set 5, late-stage follow-up (AID 588566); type: functional
# [14] = molecular target: DNA dC->dU-editing enzyme APOBEC-3G (Homo sapiens, UniProt Q9HC16); experiment: inhibition of APOBEC3G ssDNA deamination – biochemical, fluorescence, single-stranded DNA substrate, SAR follow-up (AID 602136); type: functional; settings: read-out: IC50_Mean
# Chain of DNA dC->dU-editing enzyme APOBEC-3G (Q9HC16 whole entry): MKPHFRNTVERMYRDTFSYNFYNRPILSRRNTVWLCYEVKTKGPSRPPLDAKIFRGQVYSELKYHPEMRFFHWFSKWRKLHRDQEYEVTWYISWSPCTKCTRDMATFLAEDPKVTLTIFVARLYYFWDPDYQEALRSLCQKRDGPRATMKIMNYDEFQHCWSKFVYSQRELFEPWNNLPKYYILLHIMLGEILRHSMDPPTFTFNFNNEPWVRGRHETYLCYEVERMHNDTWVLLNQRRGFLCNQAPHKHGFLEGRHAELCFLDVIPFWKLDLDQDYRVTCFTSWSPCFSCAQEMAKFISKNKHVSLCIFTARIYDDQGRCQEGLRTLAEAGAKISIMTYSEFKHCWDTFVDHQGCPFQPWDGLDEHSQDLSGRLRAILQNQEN
# [15] = molecular target: DNA dC->dU-editing enzyme APOBEC-3A (Homo sapiens, UniProt P31941); experiment: SAR analysis of small molecule inhibitors of APOBEC3A DNA Deaminase via a fluorescence-based single-stranded DNA deaminase assay.; type: functional; settings: read-out: IC50_Mean
# Chain of DNA dC->dU-editing enzyme APOBEC-3A (P31941 whole entry): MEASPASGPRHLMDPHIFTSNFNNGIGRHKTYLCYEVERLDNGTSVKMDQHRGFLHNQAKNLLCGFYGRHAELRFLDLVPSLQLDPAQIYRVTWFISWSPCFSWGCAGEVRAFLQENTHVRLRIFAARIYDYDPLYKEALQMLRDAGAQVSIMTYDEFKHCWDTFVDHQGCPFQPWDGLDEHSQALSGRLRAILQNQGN
# [16] = molecular target: Hepatocyte growth factor receptor (Homo sapiens, UniProt P08581); type: functional;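 further: kinase panel profiling across the kinome, with MET as the panel member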
# Focal adhesion kinase 1 = Focal adhesion kinase 1 (Homo sapiens, UniProt Q05397); type: functional;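 further: measured as one member of a kinome panel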
# [17] = molecular target: Tyrosine-protein kinase ABL1 (Homo sapiens, UniProt P00519); type: functional
# [18] = molecular target: Leucine-rich repeat serine/threonine-protein kinase 2 (Homo sapiens, UniProt Q5S007); type: functional;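 further: value from a broad kinome-wide panel profiling study in which LRRK2 was one of the kinases tested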
# [19] = molecular target: Fibroblast growth factor receptor 3 (Homo sapiens, UniProt P22607); type: functional
# Chain of Fibroblast growth factor receptor 3 (P22607 whole entry): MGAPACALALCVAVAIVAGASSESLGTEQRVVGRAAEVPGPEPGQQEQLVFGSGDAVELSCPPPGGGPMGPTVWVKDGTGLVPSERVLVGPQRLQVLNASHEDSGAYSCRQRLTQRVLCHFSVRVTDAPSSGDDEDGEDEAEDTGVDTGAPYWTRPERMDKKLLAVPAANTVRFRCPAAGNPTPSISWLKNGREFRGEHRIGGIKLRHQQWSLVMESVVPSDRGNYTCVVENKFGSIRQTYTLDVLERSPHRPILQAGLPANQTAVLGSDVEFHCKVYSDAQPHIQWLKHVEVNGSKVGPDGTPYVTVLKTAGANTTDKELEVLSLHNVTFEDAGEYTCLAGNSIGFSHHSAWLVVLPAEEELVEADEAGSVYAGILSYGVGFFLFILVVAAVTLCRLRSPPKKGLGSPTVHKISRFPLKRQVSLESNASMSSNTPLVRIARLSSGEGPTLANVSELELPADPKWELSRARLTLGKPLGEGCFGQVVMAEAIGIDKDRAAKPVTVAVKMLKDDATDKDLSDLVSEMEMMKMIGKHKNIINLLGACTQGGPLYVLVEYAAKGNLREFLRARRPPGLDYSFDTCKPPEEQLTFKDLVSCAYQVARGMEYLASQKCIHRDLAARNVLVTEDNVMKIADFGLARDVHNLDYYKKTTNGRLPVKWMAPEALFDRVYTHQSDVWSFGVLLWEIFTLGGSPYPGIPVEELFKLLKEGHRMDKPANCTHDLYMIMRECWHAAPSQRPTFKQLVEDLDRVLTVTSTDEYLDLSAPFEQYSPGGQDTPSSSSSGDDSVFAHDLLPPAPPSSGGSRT
# [20] = molecular target: Tyrosine-protein kinase SYK (Homo sapiens, UniProt P43405); type: functional
# [21] = molecular target: Insulin-like growth factor 1 receptor (Homo sapiens, UniProt P08069); experiment: Navigating the Kinome. Panel member name: IGF1R; type: functional
# [22] = molecular target: cAMP-dependent protein kinase catalytic subunit alpha (Homo sapiens, UniProt P17612); type: functional
# [23] = molecular target: Dual specificity protein kinase CLK4 (Homo sapiens, UniProt Q9HAZ1); type: functional
# Chain of Dual specificity protein kinase CLK4 (Q9HAZ1 whole entry): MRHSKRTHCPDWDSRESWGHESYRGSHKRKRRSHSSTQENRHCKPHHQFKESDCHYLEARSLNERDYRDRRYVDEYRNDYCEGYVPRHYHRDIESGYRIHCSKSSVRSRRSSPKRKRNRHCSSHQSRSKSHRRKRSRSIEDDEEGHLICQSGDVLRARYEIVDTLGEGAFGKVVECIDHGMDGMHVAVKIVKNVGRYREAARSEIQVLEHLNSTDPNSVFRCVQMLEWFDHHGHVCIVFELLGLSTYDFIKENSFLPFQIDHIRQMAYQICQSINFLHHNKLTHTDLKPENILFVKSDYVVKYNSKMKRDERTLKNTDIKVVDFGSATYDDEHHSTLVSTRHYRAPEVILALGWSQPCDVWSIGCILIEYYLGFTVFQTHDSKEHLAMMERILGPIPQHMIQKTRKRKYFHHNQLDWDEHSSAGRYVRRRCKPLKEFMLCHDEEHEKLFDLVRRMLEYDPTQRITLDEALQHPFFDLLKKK
# [24] = molecular target: Interleukin-1 receptor-associated kinase 4 (Homo sapiens, UniProt Q9NWZ3); type: functional
# [25] = molecular target: Mitogen-activated protein kinase kinase kinase kinase 4 (Homo sapiens, UniProt O95819); type: functional
# Chain of Mitogen-activated protein kinase kinase kinase kinase 4 (O95819 whole entry): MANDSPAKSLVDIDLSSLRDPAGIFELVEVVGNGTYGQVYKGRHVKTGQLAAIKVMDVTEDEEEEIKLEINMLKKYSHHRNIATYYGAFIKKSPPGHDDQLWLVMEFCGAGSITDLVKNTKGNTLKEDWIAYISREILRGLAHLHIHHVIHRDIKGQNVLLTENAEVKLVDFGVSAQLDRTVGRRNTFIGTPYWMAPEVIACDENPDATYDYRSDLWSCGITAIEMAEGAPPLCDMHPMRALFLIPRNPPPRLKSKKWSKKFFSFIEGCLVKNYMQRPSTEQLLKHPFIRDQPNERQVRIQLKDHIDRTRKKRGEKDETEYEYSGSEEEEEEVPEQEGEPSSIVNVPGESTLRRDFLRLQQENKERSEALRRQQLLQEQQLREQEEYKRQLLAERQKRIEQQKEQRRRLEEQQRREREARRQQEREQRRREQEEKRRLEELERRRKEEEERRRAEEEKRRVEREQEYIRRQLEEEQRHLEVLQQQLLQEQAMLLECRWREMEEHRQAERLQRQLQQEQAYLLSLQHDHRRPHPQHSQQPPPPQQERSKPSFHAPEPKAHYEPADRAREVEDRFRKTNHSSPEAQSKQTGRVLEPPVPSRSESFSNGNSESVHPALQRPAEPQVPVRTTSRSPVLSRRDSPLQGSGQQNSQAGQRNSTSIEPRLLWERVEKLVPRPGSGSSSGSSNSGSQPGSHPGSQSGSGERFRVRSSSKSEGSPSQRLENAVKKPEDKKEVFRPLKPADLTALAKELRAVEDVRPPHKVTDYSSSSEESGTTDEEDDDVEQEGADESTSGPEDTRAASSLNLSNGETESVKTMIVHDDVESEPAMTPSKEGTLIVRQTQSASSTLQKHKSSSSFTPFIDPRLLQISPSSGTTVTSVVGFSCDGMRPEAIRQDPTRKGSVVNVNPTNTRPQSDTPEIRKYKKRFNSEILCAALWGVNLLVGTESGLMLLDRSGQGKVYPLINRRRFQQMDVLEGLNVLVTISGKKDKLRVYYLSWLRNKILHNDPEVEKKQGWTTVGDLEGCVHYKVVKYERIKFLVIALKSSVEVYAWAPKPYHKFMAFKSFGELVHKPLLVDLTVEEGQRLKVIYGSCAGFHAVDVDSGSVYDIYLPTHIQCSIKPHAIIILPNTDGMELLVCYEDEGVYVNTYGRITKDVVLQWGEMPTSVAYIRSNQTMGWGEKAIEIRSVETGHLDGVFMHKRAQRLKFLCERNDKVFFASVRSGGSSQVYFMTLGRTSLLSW
# [26] = molecular target: Cyclin-dependent kinase 2 (Homo sapiens, UniProt P24941); type: functional;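 further: CDK2 measured as one member of a broad kinome profiling panel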
# [27] = molecular target: Glycogen synthase kinase-3 beta (Homo sapiens, UniProt P49841); type: functional;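 further: value comes from a broad kinome profiling panel, with GSK3B as the panel member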
# [28] = molecular target: Serine/threonine-protein kinase pim-1 (Homo sapiens, UniProt P11309); type: functional
# Chain of Serine/threonine-protein kinase pim-1 (P11309 whole entry): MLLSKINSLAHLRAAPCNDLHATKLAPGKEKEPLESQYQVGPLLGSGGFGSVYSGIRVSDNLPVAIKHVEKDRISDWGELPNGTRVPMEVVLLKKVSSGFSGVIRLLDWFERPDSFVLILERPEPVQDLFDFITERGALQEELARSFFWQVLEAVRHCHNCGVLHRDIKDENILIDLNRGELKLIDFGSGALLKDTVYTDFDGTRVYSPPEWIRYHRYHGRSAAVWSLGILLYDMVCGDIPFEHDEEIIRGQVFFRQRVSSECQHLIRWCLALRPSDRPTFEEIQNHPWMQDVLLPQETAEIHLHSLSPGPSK
# [29] = molecular target: Homeodomain-interacting protein kinase 2 (Homo sapiens, UniProt Q9H2X6); type: functional;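 further: measured within a kinome-wide kinase profiling panel, HIPK2 being one panel member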
# [30] = molecular target: Cell division cycle 7-related protein kinase (Homo sapiens, UniProt O00311); type: functional;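 further: value obtained from a kinome-wide kinase panel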
# Chain of Cell division cycle 7-related protein kinase (O00311 whole entry): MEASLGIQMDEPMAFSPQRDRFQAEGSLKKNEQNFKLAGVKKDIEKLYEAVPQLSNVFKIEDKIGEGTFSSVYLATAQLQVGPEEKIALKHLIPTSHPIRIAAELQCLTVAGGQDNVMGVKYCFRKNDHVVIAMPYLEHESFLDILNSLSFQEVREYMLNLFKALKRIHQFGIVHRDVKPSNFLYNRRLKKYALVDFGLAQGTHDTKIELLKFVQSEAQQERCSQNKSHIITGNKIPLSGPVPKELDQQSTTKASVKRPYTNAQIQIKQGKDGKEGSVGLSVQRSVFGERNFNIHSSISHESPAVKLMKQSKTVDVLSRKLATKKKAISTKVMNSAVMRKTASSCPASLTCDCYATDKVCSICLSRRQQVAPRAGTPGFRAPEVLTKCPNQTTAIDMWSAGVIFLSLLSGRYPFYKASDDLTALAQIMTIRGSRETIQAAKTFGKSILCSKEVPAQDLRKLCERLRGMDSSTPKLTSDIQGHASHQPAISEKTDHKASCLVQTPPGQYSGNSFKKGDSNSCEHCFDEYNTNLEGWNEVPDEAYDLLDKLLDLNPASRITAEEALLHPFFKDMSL
# [31] = molecular target: Protein kinase C delta type (Homo sapiens, UniProt Q05655); type: functional
# Chain of Protein kinase C delta type (Q05655 whole entry): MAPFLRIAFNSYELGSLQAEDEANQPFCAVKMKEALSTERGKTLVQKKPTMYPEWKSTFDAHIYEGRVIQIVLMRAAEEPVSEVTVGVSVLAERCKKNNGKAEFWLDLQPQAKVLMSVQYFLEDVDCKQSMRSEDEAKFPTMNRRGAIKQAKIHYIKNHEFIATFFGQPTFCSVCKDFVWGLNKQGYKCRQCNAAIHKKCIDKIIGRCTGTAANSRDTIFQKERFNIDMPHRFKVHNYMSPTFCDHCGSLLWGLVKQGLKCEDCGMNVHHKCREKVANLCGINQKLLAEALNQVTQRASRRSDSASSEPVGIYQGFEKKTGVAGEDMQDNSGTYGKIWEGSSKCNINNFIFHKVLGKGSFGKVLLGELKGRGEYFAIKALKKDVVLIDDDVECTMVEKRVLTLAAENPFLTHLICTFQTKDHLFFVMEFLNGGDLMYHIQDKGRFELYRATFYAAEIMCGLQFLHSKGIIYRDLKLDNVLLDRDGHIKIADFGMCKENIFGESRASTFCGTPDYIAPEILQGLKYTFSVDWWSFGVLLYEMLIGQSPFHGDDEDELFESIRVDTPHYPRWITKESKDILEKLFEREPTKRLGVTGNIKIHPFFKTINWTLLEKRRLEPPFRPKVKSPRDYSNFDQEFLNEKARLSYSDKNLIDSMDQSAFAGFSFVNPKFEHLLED
# Misshapen-like kinase 1 = Misshapen-like kinase 1 (Homo sapiens, UniProt Q8N4C8); type: functional;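 further: kinome panel screen with MINK as the panel member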
structure (smiles),measurement,setting,value
O=C(c1ccc2c(c1)OCO2)N1CCC2(CC1)Oc1ccc(F)cc1C(=O)C21CC(c2ccccc2)=NO1 (stereo unspecified),EC50,[1],9.25 µM (active)
CC(C)NC(=O)c1sc(=S)n2c1[nH]c(=O)c1ccc(C(=O)NCCc3ccc(Cl)cc3)cc12,CC50,[2],> 100 µM (active)
same,IC50,[3],41.5 µM (active)
same,CC50,[4],> 40 µM (active)
same,CC50,[5],> 50 µM (active)
same,CC50,[6],> 100 µM (active)
O=C1NC[C@H](c2ccccc2)OC(=O)[C@@H](Cc2ccc(F)cc2)C/C=C\C[C@H]1CC(=O)N(CCO)Cc1ccccc1,IC50,Melanocortin receptor 4,> 64.6 µM (inactive)
same,IC50,[7],30.3 µM (inactive)
same,IC50,[8],> 64.6 µM (inactive)
Clc1ccc(N/N=C/c2c[nH]c3ccccc23)cc1,IC50,[9],> 99 µM (inactive)
same,IC50,Caspase-3,> 99 µM (inactive)
same,IC50,[10],> 99 µM (inactive)
same,IC50,[11],57 µM (active)
COc1c(F)cc(Oc2c(Cl)cnn(Cc3cccc4ccccc34)c2=O)cc1F,IC50,[12],7.43 µM (active)
same,IC50,[13],2.2 µM (active)
Cc1ccc(NC(=O)CCSc2nnc3scc(-c4ccccc4)n23)cc1,IC50,[14],> 99 µM (inactive)
same,IC50,[15],> 99 µM (inactive)
c1ccc(CNc2nc(Nc3cc(C4CC4)[nH]n3)c3sccc3n2)cc1,Ki,[16],0.794 µM (active)
same,Ki,Focal adhesion kinase 1,0.00501 µM (active)
same,Ki,[17],0.01 µM (active)
same,Ki,[18],0.01 µM (active)
same,Ki,[19],0.00316 µM (active)
same,Ki,[20],0.0126 µM (active)
same,Ki,[21],0.0794 µM (active)
O=c1cc(-c2ccc(F)cc2)[nH]c2c(-c3ccc(F)cc3)cnn12,Ki,[22],> 7.94 µM (inactive)
same,Ki,[23],0.158 µM (active)
same,Ki,[24],> 10 µM (inactive)
same,Ki,[25],> 10 µM (inactive)
same,Ki,[26],> 7.94 µM (inactive)
same,Ki,[27],0.501 µM (active)
same,Ki,[28],0.0501 µM (active)
same,Ki,[29],0.2 µM (active)
same,Ki,[30],0.0501 µM (active)
CC(C)Oc1ccc(-c2noc(-c3ccc(OCC(O)CO)cc3)n2)cc1Cl (stereo unspecified),Ki,[25],2 µM (active)
same,Ki,[31],7.94 µM (active)
same,Ki,Misshapen-like kinase 1,6.31 µM (active)
